Format in all cases: biochemical
One assay deals with JAK1-JH1JH2 (Homo sapiens (Human), UniProt P23458). Put plainly: Enzymatic inhibition assay (RapidFire HTMS), JAK1. The following applies: 12.5 μM ATP, 200 μM substrate; read-out: JAK1-JH2JH1 IC50. The method in brief:
(§1)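 Quenched with 0.5% TFA plus internal-standard peptide; phosphorylated product quantified by RapidFire C4 SPE–ESI-MS, 11-point 1:3 or 1:4 dilutions in duplicate.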

In a further assay the target is JAK2-JH1JH2 (Homo sapiens (Human), UniProt O60674). Put plainly: Enzymatic inhibition assay (RapidFire HTMS), JAK2. Conditions: 30 μM ATP, 40 μM substrate. From the text: LC/MS grade Water and Acetonitrile (ACN), were purchased from HoneyWell, Burdick & Jackson (Muskegon, Mich., USA). Dimethylsulfoxide 99.8% (DMSO) and Trifluoroacetic Acid 99.5% (TFA) were purchased from EMD Chemical (Gibbstown, N.J., USA). Adenosine triphosphate (ATP), 4-Morpholinepropanesulfonic acid (MOPS), Magnesium chloride (MgCl2), ethylenediaminetetraacetic acid (EDTA), dithiothreitol (DTT), formic acid >95% (FA) and Tween-20 were purchased from Sigma (St Louis, Mo., USA). 384-well polypropylene plates, Cat #781280 were purchased from Greiner (Monroe, N.C.), RapidFire™ cartridge A C4 Column (Agilent Technologies, Santa Clara, Calif.).
The HTMS experiments were performed in positive ionization mode on a RapidFire 300 instrument (Agilent Technologies, Santa Clara, Calif.), coupled with an ABSiex QTrap 4000 system with an Electrospray Ionization source (RF-MS) (Concord, ON, Canada). […] The entire system was operated using the RapidFire software interfaced with Analyst software for the mass spectrometer.
11-point dosing series were made for each compound by serially diluting 1:3 or 1:4 in DMSO, with point 12 being a DMSO control. From the serial dilution plates, sample was transferred to a 384 wells assay plate (#781280, Greiner, Monroe, N.C.) using Labcyte Echo (Sunnyvale, Calif.), or Biosero ATS (San Diego, Calif.). The compounds were tested in duplicate. Column 12 was used for positive controls, and column 24 contained negative controls with no enzyme added. A compound from our internal collection, with inhibitory activity for JAK isoforms, was used as a reference compound. The final concentration of DMSO was ≤0.25% in a 20 μL reaction. […] The Tyk2 enzyme was pre-incubated with 2 mM ATP for 30 min prior to the reaction initiation. Immediately after the addition of the enzyme to the reaction mixture, the plate was centrifuged at 1000 rpm for 1 minute and incubated at 25° C. for 45 minutes for JAK 3 and 90 minutes for JAK1, JAK2 and Tyk2. The reaction was quenched by the addition of 20 μL of 0.5% TFA containing 0.15 μM of internal standard peptide using Multidrop Combi reagent dispenser (Thermo Scientific, Waltham, Mass.). […] After the quench, the assay plate was centrifuged at 3000 rpm for 3 minutes and sealed with pierceable aluminum foil (Cat #06644-001, Agilent) using a PlateLoc (Agilent Technologies, Santa Clara, Calif.). The plates then were transferred on to the RapidFire for the MS analysis. Compound inhibition was assessed by a decrease of the phosphorylated product levels in sample wells compared to the non-inhibited enzyme reaction.
The sample analysis on the RapidFire was performed using a mobile phase A consisting of Water/TFA/FA (100:0.01:0.1, v/v/v), a mobile phase B consisting of ACN/Water/TFA/FA (80:20:0.01:0.1, v/v/v). […] The samples were aspirated directly from the 384 assay plate and delivered onto RF-MS microscale solid-phase C4 extraction cartridge (Type A). The undesired component such as salt, cofactor, detergent and large protein were washed out and the retained analytes (substrate, product and IS) were coeluted directly onto the ABSiex Qtrap 4000 system.

In another assay the target is JAK3-JH1JH2 (Homo sapiens (Human), UniProt P52333). Put plainly: Enzymatic inhibition assay (RapidFire HTMS), JAK3. The following applies: 150 μM ATP, 40 μM substrate. The method in brief: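 JAK3 JH1JH2 reaction incubated 45 min at 25 °C, then quenched with 0.5% TFA containing 0.15 μM internal standard peptide. Phosphopeptide product measured by RapidFire C4 SPE–ESI MS (positive mode); inhibition from product decrease versus uninhibited enzyme, 11-point 1:3 or 1:4 dilutions in duplicate.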

A further assay has as its target Tyk2-JH1JH2 (Homo sapiens (Human), UniProt P29597, C1142A/C936A). Put plainly: Enzymatic inhibition assay (RapidFire HTMS), Tyk2. The following applies: 50 μM ATP, 200 μM substrate. The method in brief: as §1

SMILES strings stand for the structures.

By IC50 is commonly meant the midpoint of a concentration-inhibition curve.

Chain of Tyk2-JH1JH2 (P29597 580-1182 C936A/C1142A): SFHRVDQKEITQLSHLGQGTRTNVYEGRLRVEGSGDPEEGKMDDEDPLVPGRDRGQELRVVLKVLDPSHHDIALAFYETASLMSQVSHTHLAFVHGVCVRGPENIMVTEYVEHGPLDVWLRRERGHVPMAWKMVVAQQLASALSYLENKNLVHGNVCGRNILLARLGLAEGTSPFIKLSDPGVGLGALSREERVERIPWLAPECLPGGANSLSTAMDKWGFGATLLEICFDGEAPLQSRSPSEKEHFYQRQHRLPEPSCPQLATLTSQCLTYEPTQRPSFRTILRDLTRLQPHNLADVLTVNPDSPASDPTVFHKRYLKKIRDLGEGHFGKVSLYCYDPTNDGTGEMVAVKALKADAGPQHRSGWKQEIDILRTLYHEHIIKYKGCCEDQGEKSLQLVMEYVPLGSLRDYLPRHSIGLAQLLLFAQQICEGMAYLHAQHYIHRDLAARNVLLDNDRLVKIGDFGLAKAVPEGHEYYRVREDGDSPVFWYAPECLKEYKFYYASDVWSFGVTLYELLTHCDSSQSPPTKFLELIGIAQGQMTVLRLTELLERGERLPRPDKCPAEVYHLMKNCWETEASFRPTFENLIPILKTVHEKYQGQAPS
Chain of JAK1-JH1JH2 (P23458 574-1154): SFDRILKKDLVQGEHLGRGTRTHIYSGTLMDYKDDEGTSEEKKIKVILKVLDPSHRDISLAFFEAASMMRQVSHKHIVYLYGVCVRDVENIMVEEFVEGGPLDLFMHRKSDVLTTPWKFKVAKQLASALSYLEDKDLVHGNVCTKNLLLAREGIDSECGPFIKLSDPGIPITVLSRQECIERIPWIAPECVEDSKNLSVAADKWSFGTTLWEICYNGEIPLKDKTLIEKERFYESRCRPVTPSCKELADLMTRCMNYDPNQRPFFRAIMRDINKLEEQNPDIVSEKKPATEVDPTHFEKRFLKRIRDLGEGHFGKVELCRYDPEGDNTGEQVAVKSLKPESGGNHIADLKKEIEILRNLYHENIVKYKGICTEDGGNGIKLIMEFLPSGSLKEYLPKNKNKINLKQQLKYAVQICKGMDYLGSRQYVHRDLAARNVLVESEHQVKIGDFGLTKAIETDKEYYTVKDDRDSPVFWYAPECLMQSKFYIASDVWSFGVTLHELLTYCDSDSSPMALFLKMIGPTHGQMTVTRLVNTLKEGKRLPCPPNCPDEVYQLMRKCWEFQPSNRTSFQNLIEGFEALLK
Chain of JAK3-JH1JH2 (P52333 512-1124): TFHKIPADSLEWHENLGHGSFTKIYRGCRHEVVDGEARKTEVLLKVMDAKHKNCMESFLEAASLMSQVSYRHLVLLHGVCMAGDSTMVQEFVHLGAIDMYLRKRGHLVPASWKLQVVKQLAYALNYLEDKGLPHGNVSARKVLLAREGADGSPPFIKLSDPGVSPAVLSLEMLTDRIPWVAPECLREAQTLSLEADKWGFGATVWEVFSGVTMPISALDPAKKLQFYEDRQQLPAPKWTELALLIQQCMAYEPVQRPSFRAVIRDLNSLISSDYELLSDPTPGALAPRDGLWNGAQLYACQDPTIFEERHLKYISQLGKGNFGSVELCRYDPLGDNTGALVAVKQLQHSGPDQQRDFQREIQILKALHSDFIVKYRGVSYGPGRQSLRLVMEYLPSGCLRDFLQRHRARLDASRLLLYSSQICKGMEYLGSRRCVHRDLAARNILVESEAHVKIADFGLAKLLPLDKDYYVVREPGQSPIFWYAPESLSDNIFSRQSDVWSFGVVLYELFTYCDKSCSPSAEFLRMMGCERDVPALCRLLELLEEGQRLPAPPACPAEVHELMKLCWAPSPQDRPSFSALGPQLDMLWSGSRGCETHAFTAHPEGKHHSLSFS
Chain of JAK2-JH1JH2 (O60674 532-1132): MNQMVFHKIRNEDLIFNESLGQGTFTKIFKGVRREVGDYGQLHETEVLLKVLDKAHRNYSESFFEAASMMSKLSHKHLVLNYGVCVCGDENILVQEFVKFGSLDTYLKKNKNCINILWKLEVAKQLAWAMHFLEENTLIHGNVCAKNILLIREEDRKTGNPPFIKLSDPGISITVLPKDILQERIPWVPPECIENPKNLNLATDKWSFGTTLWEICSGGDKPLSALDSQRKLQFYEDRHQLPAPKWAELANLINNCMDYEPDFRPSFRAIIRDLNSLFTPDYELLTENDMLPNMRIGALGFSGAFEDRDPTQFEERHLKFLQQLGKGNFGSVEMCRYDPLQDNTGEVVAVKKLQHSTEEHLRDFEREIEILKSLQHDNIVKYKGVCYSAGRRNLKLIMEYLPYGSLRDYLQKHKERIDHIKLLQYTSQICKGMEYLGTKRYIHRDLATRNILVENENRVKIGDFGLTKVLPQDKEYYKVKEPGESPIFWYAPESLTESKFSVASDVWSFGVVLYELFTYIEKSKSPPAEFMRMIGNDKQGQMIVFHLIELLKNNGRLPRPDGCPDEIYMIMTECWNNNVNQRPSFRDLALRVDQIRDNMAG

`N#CC[C@H]1CC[C@H](n2c(CNC(=O)c3ccccc3)nc3cnc4[nH]ccc4c32)CC1` [Ex. 148, N-((1-((1r,4r)-4-(Cyanomethyl)cyclohexyl)-1,6-dihydroimidazo[4,5-d]pyrrolo[2,3-b]pyridin-2-yl)methyl)benzamide]: the IC50 on JAK1-JH1JH2 was 0.0011 µM; against JAK2-JH1JH2 it was 0.0504 µM; on JAK3-JH1JH2, 0.767 µM; against Tyk2-JH1JH2, 0.0362 µM.
With `CNc1nccc(-c2nc3cnc4[nH]ccc4c3n2[C@H]2CC[C@H](CC#N)CC2)n1` [Ex. 89, 2-((1r,4r)-4-(2-(2-(Methylamino)pyrimidin-4-yl)imidazo[4,5-d]pyrrolo[2,3-b]pyridin-1(6H)-yl)cyclohexyl)acetonitrile], the IC50 at JAK1-JH1JH2 came to 0.0004 µM; at JAK2-JH1JH2, 0.0034 µM; against JAK3-JH1JH2, 0.0606 µM; against Tyk2-JH1JH2 it was 0.018 µM.
`CS(=O)(=O)N1CC(c2nc3cnc4[nH]ccc4c3n2[C@H]2CC[C@H](CC#N)CC2)C1` [Ex. 134, 2-((1r,4r)-4-(2-(1-(Methylsulfonyl)azetidin-3-yl)imidazo[4,5-d]pyrrolo[2,3-b]pyridin-1(6H)-yl)cyclohexyl)acetonitrile]: the IC50 on JAK1-JH1JH2 came to 0.0008 µM; against JAK2-JH1JH2 it was 0.119 µM; at JAK3-JH1JH2, 1.29 µM; against Tyk2-JH1JH2, 0.0912 µM.
In the case of `N#CC[C@H]1CC[C@H](n2c(-c3cccnc3N)nc3cnc4[nH]ccc4c32)CC1` [Ex. 186, 2-((1r,4r)-4-(2-(2-aminopyridin-3-yl)imidazo[4,5-d]pyrrolo[2,3-b]pyridin-1(6H)-yl)cyclohexyl)acetonitrile], the IC50 at JAK1-JH1JH2 amounted to 0.0037 µM; against JAK2-JH1JH2, 0.0822 µM; against JAK3-JH1JH2, 4.65 µM; at Tyk2-JH1JH2, 0.254 µM.
As to `N#CC[C@H]1CC[C@H](n2c(CC(=O)N3CCCC3)nc3cnc4[nH]ccc4c32)CC1` [Ex. 49, 2-((1r,4r)-4-(2-(2-Oxo-2-(pyrrolidin-1-yl)ethyl)imidazo[4,5-d]pyrrolo[2,3-b]pyridin-1(6H)-yl)cyclohexyl)acetonitrile], the IC50 on JAK1-JH1JH2 came out at 0.0002 µM; at JAK2-JH1JH2 it was 0.0435 µM; against JAK3-JH1JH2, 0.249 µM; on Tyk2-JH1JH2 it was 0.0042 µM.
With `N#CC[C@H]1CC[C@H](n2c(CC(=O)NC34CCC(C#N)(CC3)C4)nc3cnc4[nH]ccc4c32)CC1` [Ex. 23, N-(4-Cyanobicyclo[2.2.1]heptan-1-yl)-2-(1-((1r,4r)-4-(cyanomethyl)cyclohexyl)-1,6-dihydroimidazo[4,5-d]pyrrolo[2,3-b]pyridin-2-yl)acetamide], the IC50 at JAK1-JH1JH2 was found to be 0.0001 µM; against JAK2-JH1JH2, 0.0014 µM; against JAK3-JH1JH2, 0.0381 µM; at Tyk2-JH1JH2, 0.0035 µM.
In the case of `CNC(=O)c1nc2cnc3[nH]ccc3c2n1[C@H]1CC[C@H](CC#N)CC1` [Ex. 133, 1-((1r,4r)-4-(Cyanomethyl)cyclohexyl)-N-methyl-1,6-dihydroimidazo[4,5-d]pyrrolo[2,3-b]pyridine-2-carboxamide], the IC50 at JAK1-JH1JH2 came out at 0.0008 µM; on JAK2-JH1JH2, 0.0094 µM; on JAK3-JH1JH2 it was 0.154 µM; on Tyk2-JH1JH2, 0.0198 µM.
With `N#CC[C@H]1CC[C@H](n2c(CO/N=C(\N)c3ccccc3)nc3cnc4[nH]ccc4c32)CC1` [Ex. 124, (Z*)—N-((1-((1r,4r)-4-(Cyanomethyl)cyclohexyl)-1,6-dihydroimidazo[4,5-d]pyrrolo[2,3-b]pyridin-2-yl)methoxy)benzimidamide], the IC50 was found to be 0.0007 µM at JAK1-JH1JH2, 0.0044 µM at JAK2-JH1JH2, 0.141 µM at JAK3-JH1JH2 and 0.0181 µM on Tyk2-JH1JH2.
As to `N#CC[C@H]1CC[C@H](n2c(CC(=O)NCC(F)(F)F)nc3cnc4[nH]ccc4c32)CC1` [Ex. 57, 2-(1-((1r,4r)-4-(Cyanomethyl)cyclohexyl)-1,6-dihydroimidazo[4,5-d]pyrrolo[2,3-b]pyridin-2-yl)-N-(2,2,2-trifluoroethyl)acetamide], the IC50 on JAK1-JH1JH2 came out at 0.0002 µM; against JAK2-JH1JH2, 0.0056 µM; at JAK3-JH1JH2 it was 0.0695 µM; on Tyk2-JH1JH2 it was 0.0034 µM.
In the same order, the values of `N#CC[C@H]1CC[C@H](n2c(CC(=O)Nc3cn[nH]c3)nc3cnc4[nH]ccc4c32)CC1` [Ex. 64, 2-(1-((1r,4r)-4-(Cyanomethyl)cyclohexyl)-1,6-dihydroimidazo[4,5-d]pyrrolo[2,3-b]pyridin-2-yl)-N-(1H-pyrazol-4-yl)acetamide] are 0.0003 µM, 0.0056 µM, 0.0514 µM and 0.0057 µM.
For the compound `Cc1nc(C)c(-c2nc3cnc4[nH]ccc4c3n2[C@H]2CC[C@H](CC#N)CC2)s1` [Ex. 184, 2-((1r,4r)-4-(2-(2,4-dimethylthiazol-5-yl)imidazo[4,5-d]pyrrolo[2,3-b]pyridin-1(6H)-yl)cyclohexyl)acetonitrile], the IC50 on JAK1-JH1JH2 worked out at 0.0255 µM; on JAK2-JH1JH2, 0.23 µM; against JAK3-JH1JH2 it was 1.23 µM; against Tyk2-JH1JH2 it was 0.319 µM.
In the same order, the values of `CNC(=O)Cc1nc2cnc3[nH]ccc3c2n1[C@H]1CC[C@H](CC#N)CC1` [Ex. 198, 2-(1-((1r,4r)-4-(Cyanomethyl)cyclohexyl)-1,6-dihydroimidazo[4,5-d]pyrrolo[2,3-b]pyridin-2-yl)-N-methylacetamide] are under 0.004 µM, 0.0021 µM, 0.0244 µM and 0.0012 µM.
For `N#CC[C@H]1CC[C@H](n2c(CC(=O)NC34CCC(CO)(CC3)C4)nc3cnc4[nH]ccc4c32)CC1` [Ex. 131, 2-(1-((1r,4r)-4-(Cyanomethyl)cyclohexyl)-1,6-dihydroimidazo[4,5-d]pyrrolo[2,3-b]pyridin-2-yl)-N-(4-(hydroxymethyl)bicyclo[2.2.1]heptan-1-yl)acetamide], the IC50 stood at 0.0008 µM at JAK1-JH1JH2, 0.0056 µM against JAK2-JH1JH2, 0.1 µM against JAK3-JH1JH2 and 0.0105 µM at Tyk2-JH1JH2.
As to `N#CC[C@H]1CC[C@H](n2c(-c3cc[nH]n3)nc3cnc4[nH]ccc4c32)CC1` [Ex. 60, 2-((1r,4r)-4-(2-(1H-Pyrazol-3-yl)imidazo[4,5-d]pyrrolo[2,3-b]pyridin-1(6H)-yl)cyclohexyl)acetonitrile], the IC50 at JAK1-JH1JH2 came to 0.0003 µM; against JAK2-JH1JH2 it was 0.0017 µM; at JAK3-JH1JH2, 0.072 µM; against Tyk2-JH1JH2, 0.0034 µM.
Consider `CC(C)/C(=N/O)NCc1nc2cnc3[nH]ccc3c2n1[C@H]1CC[C@H](CC#N)CC1` [Ex. 61, (EZ)—N-((1-((1r,4r)-4-(cyanomethyl)cyclohexyl)-1,6-dihydroimidazo[4,5-d]pyrrolo[2,3-b]pyridin-2-yl)methyl)-N-hydroxyisobutyrimidamide], for which the half-inhibitory concentration (IC50) was determined as 0.0003 µM on JAK1-JH1JH2, 0.0257 µM against JAK2-JH1JH2, 0.219 µM against JAK3-JH1JH2 and 0.0063 µM against Tyk2-JH1JH2.
In the same order, the values of `N#CC[C@H]1CC[C@H](n2c(C(=O)NCC3CC3)nc3cnc4[nH]ccc4c32)CC1` [Ex. 174, 1-((1r,4r)-4-(cyanomethyl)cyclohexyl)-N-(cyclopropylmethyl)-1,6-dihydroimidazo[4,5-d]pyrrolo[2,3-b]pyridine-2-carboxamide] are 0.0022 µM, 0.0572 µM, 0.604 µM and 0.0552 µM.

These data come from US10981911B2, “Imidazopyrrolopyridine as inhibitors of the JAK family of kinases” (Janssen Pharmaceutica NV, priority 2016, dated 2021).
